Reference: patent US10499642B2, “Isoxazoline-substituted benzamides and analogues as insecticides” (SYNGENTA PARTICIPATIONS AG, priority 2015, dated 2019)

Legend:
Assay type in all cases: in vivo
Myzus persicae = Myzus persicae (green peach aphid) sunflower leaf disc test; settings: foliar, 144 h
Description: Myzus persicae (Green Peach Aphid):
Sunflower leaf discs were placed on agar in a 24-well microtiter plate and sprayed with test solutions at an application rate of 200 ppm. After drying, the leaf discs were infested with an aphid population of mixed ages. After an incubation period of 6 days after treatment, samples were checked for mortality. The following compounds gave at least 80% mortality of Myzus persicae: […]

Diabrotica Balteata = experiment: Diabrotica balteata (corn root worm) maize sprout test; settings: 96 h, read-out: effect in at least one of the two categories (mortality or growth inhibition)
Summary of the method: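 Scoring covered both mortality and growth inhibition relative to untreated controls, 4 days post-infestation. Test solutions at 200 ppm, diluted in water from 10′000 ppm DMSO stocks, were sprayed onto agar-held maize sprouts, which after drying received 6 to 10 L2 larvae each well.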

Spodoptera littoralis = Spodoptera littoralis (Egyptian cotton leaf worm) cotton leaf disc test; settings: foliar, 72 h, read-out: control (at least one of mortality, anti-feedant effect, and growth inhibition)
Summary of the method: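 Five first-instar larvae per disc were placed on dried, sprayed cotton leaf discs held on agar. Test solutions were aqueous, made from 10′000 ppm DMSO stocks. At day 3, control was counted when mortality, feeding deterrence or growth inhibition exceeded the untreated discs.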

Tetranychus urticae = Tetranychus urticae (two-spotted spider mite) bean leaf disc test; settings: foliar, 192 h
Description: Tetranychus urticae (Two-Spotted Spider Mite):
Bean leaf discs on agar in 24-well microtiter plates were sprayed with aqueous test solutions prepared from 10′000 ppm DMSO stock solutions. After drying the leaf discs were infested with a mite population of mixed ages. The samples were assessed for mortality on mixed population (mobile stages) 8 days after infestation.

Thrips tabaci = Thrips tabaci (onion thrips) sunflower leaf disc test; settings: foliar, 144 h
Description: Thrips tabaci (Onion Thrips):
Sunflower leaf discs were placed on agar in 24-well microtiter plates and sprayed with aqueous test solutions prepared from 10′000 ppm DMSO stock solutions. After drying the leaf discs were infested with a thrips population of mixed ages. The samples were assessed for mortality 6 days after infestation.

Plutella xylostella = Plutella xylostella (diamond back moth) artificial diet test; settings: 120 h, read-out: effect in at least one of the two categories (mortality or growth inhibition)
Summary of the method: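 At a 200 ppm rate, test solutions were applied to artificial diet and allowed to dry before second-instar larvae were added. Five days later, larval mortality and growth inhibition were rated against untreated samples.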

Cc1cc(C2=NO[C@@](c3cc(Cl)cc(Cl)c3)(C(F)(F)F)C2)ccc1C(=O)NC1CC(C(F)(F)F)=NO1 (stereo partly drawn) [Compound A136, 4-[(5S)-5-(3,5-dichlorophenyl)-5-(trifluoromethyl)-4H-isoxazol-3-yl]-2-methyl-N-[3-(trifluoromethyl)-4,5-dihydroisoxazol-5-yl]benzamide]
≥ 80%: mortality at 200 ppm (Myzus persicae) | percent effect (mortality or growth inhibition) at 200 ppm (Diabrotica Balteata) | percent control (mortality, anti-feedant effect or growth inhibition) at 200 ppm (Spodoptera littoralis) | mortality at 200 ppm (Tetranychus urticae) | mortality at 200 ppm (Thrips tabaci) | percent effect (mortality or growth inhibition) at 200 ppm (Plutella xylostella)

Cc1cc(C2=NO[C@@](c3cc(Cl)c(F)c(Cl)c3)(C(F)(F)F)C2)ccc1C(=O)NC1CC(OCC(F)(F)F)=NO1 (stereo partly drawn) [Compound A103]
≥ 80%: mortality at 200 ppm (Myzus persicae) | percent effect (mortality or growth inhibition) at 200 ppm (Diabrotica Balteata) | percent control (mortality, anti-feedant effect or growth inhibition) at 200 ppm (Spodoptera littoralis) | mortality at 200 ppm (Tetranychus urticae) | mortality at 200 ppm (Thrips tabaci) | percent effect (mortality or growth inhibition) at 200 ppm (Plutella xylostella)

Cc1cc(C2=NO[C@@](c3cc(Cl)c(F)c(Cl)c3)(C(F)(F)F)C2)ccc1C(=O)NC1CC(OCC[Si](C)(C)C)=NO1 (stereo partly drawn) [Compound A109]
≥ 80%: mortality at 200 ppm (Myzus persicae) | percent effect (mortality or growth inhibition) at 200 ppm (Diabrotica Balteata) | percent control (mortality, anti-feedant effect or growth inhibition) at 200 ppm (Spodoptera littoralis) | mortality at 200 ppm (Tetranychus urticae) | mortality at 200 ppm (Thrips tabaci) | percent effect (mortality or growth inhibition) at 200 ppm (Plutella xylostella)

Cc1cc(C2=NO[C@@](c3cc(Cl)c(F)c(Cl)c3)(C(F)(F)F)C2)ccc1C(=O)N(C(=O)OC(C)(C)C)C1CC=NO1 (stereo partly drawn) [Compound A086, tert-butyl N-[4-[(5S)-5-(3,5-dichloro-4-fluoro-phenyl)-5-(trifluoromethyl)-4H-isoxazol-3-yl]-2-methyl-benzoyl]-N-(4,5-dihydroisoxazol-5-yl)carbamate]
≥ 80%: mortality at 200 ppm (Myzus persicae) | percent effect (mortality or growth inhibition) at 200 ppm (Diabrotica Balteata) | percent control (mortality, anti-feedant effect or growth inhibition) at 200 ppm (Spodoptera littoralis) | mortality at 200 ppm (Tetranychus urticae) | mortality at 200 ppm (Thrips tabaci) | percent effect (mortality or growth inhibition) at 200 ppm (Plutella xylostella)

CC1=NOC(NC(=O)c2ccc(C3=NO[C@@](c4cc(Cl)cc(Cl)c4)(C(F)(F)F)C3)cc2C)C1 (stereo partly drawn) [Compound A141]
≥ 80%: mortality at 200 ppm (Myzus persicae) | percent effect (mortality or growth inhibition) at 200 ppm (Diabrotica Balteata) | percent control (mortality, anti-feedant effect or growth inhibition) at 200 ppm (Spodoptera littoralis) | mortality at 200 ppm (Tetranychus urticae) | mortality at 200 ppm (Thrips tabaci) | percent effect (mortality or growth inhibition) at 200 ppm (Plutella xylostella)

Cc1cc(C2=NO[C@@](c3cc(Cl)c(Cl)c(Cl)c3)(C(F)(F)F)C2)ccc1C(=O)NC1CC(Cl)=NO1 (stereo partly drawn) [Compound A013, N-(3-chloro-4,5-dihydroisoxazol-5-yl)-2-methyl-4-[(5S)-5-(3,4,5-trichlorophenyl)-5-(trifluoromethyl)-4H-isoxazol-3-yl]benzamide]
≥ 80%: mortality at 200 ppm (Myzus persicae) | percent effect (mortality or growth inhibition) at 200 ppm (Diabrotica Balteata) | percent control (mortality, anti-feedant effect or growth inhibition) at 200 ppm (Spodoptera littoralis) | mortality at 200 ppm (Tetranychus urticae) | mortality at 200 ppm (Thrips tabaci) | percent effect (mortality or growth inhibition) at 200 ppm (Plutella xylostella)

Cc1cc(C2=NO[C@@](c3cc(Cl)c(Cl)c(Cl)c3)(C(F)(F)F)C2)ccc1C(=O)NC1CC(OCc2ccccn2)=NO1 (stereo partly drawn) [Compound A112, 2-methyl-N-[3-(2-pyridylmethoxy)-4,5-dihydroisoxazol-5-yl]-4-[(5S)-5-(3,4,5-trichlorophenyl)-5-(trifluoromethyl)-4H-isoxazol-3-yl]benzamide]
≥ 80%: mortality at 200 ppm (Myzus persicae) | percent effect (mortality or growth inhibition) at 200 ppm (Diabrotica Balteata) | percent control (mortality, anti-feedant effect or growth inhibition) at 200 ppm (Spodoptera littoralis) | mortality at 200 ppm (Tetranychus urticae) | mortality at 200 ppm (Thrips tabaci) | percent effect (mortality or growth inhibition) at 200 ppm (Plutella xylostella)

C=CCOC1=NOC(NC(=O)c2ccc(C3=NO[C@@](c4cc(Cl)c(F)c(Cl)c4)(C(F)(F)F)C3)cc2C)C1 (stereo partly drawn) [Compound A072]
≥ 80%: mortality at 200 ppm (Myzus persicae) | percent effect (mortality or growth inhibition) at 200 ppm (Diabrotica Balteata) | percent control (mortality, anti-feedant effect or growth inhibition) at 200 ppm (Spodoptera littoralis) | mortality at 200 ppm (Tetranychus urticae) | mortality at 200 ppm (Thrips tabaci) | percent effect (mortality or growth inhibition) at 200 ppm (Plutella xylostella)

Cc1cc(C2=NO[C@@](c3cc(Cl)c(F)c(Cl)c3)(C(F)(F)F)C2)ccc1C(=O)NC1CC(OCC2CC2)=NO1 (stereo partly drawn) [Compound A083]
≥ 80%: mortality at 200 ppm (Myzus persicae) | percent effect (mortality or growth inhibition) at 200 ppm (Diabrotica Balteata) | percent control (mortality, anti-feedant effect or growth inhibition) at 200 ppm (Spodoptera littoralis) | mortality at 200 ppm (Tetranychus urticae) | mortality at 200 ppm (Thrips tabaci) | percent effect (mortality or growth inhibition) at 200 ppm (Plutella xylostella)

Cc1cc(C2=NO[C@@](c3cc(Cl)c(F)c(Cl)c3)(C(F)(F)F)C2)ccc1C(=O)NC1CC(OCC(F)F)=NO1 (stereo partly drawn) [Compound A071]
≥ 80%: mortality at 200 ppm (Myzus persicae) | percent effect (mortality or growth inhibition) at 200 ppm (Diabrotica Balteata) | percent control (mortality, anti-feedant effect or growth inhibition) at 200 ppm (Spodoptera littoralis) | mortality at 200 ppm (Tetranychus urticae) | mortality at 200 ppm (Thrips tabaci) | percent effect (mortality or growth inhibition) at 200 ppm (Plutella xylostella)

Cc1cc(C2=NO[C@@](c3cc(Cl)c(Cl)c(Cl)c3)(C(F)(F)F)C2)ccc1C(=O)NC1CC(OCCC(C)C)=NO1 (stereo partly drawn) [Compound A106, N-(3-isopentyloxy-4,5-dihydroisoxazol-5-yl)-2-methyl-4-[(5S)-5-(3,4,5-trichlorophenyl)-5-(trifluoromethyl)-4H-isoxazol-3-yl]benzamide]
≥ 80%: mortality at 200 ppm (Myzus persicae) | percent effect (mortality or growth inhibition) at 200 ppm (Diabrotica Balteata) | percent control (mortality, anti-feedant effect or growth inhibition) at 200 ppm (Spodoptera littoralis) | mortality at 200 ppm (Tetranychus urticae) | mortality at 200 ppm (Thrips tabaci) | percent effect (mortality or growth inhibition) at 200 ppm (Plutella xylostella)

CC1=NOC(N(C=O)C(=O)c2ccc(C3=NO[C@@](c4cc(Cl)cc(Cl)c4)(C(F)(F)F)C3)cc2C)C1 (stereo partly drawn) [Compound A140]
≥ 80%: mortality at 200 ppm (Myzus persicae) | percent effect (mortality or growth inhibition) at 200 ppm (Diabrotica Balteata) | percent control (mortality, anti-feedant effect or growth inhibition) at 200 ppm (Spodoptera littoralis) | mortality at 200 ppm (Tetranychus urticae) | mortality at 200 ppm (Thrips tabaci) | percent effect (mortality or growth inhibition) at 200 ppm (Plutella xylostella)

Cc1cc(C2=NO[C@@](c3cc(Cl)cc(Cl)c3)(C(F)(F)F)C2)ccc1C(=O)N(C=O)C1CC(Br)=NO1 (stereo partly drawn) [Compound A056, N-(3-bromo-4,5-dihydroisoxazol-5-yl)-4-[(5S)-5-(3,5-dichlorophenyl)-5-(trifluoromethyl)-4H-isoxazol-3-yl]-N-formyl-2-methyl-benzamide]
≥ 80%: mortality at 200 ppm (Myzus persicae) | percent effect (mortality or growth inhibition) at 200 ppm (Diabrotica Balteata) | percent control (mortality, anti-feedant effect or growth inhibition) at 200 ppm (Spodoptera littoralis) | mortality at 200 ppm (Tetranychus urticae) | mortality at 200 ppm (Thrips tabaci) | percent effect (mortality or growth inhibition) at 200 ppm (Plutella xylostella)

COC1=NOC(NC(=O)c2ccc(C3=NO[C@@](c4cc(Cl)c(Cl)c(Cl)c4)(C(F)(F)F)C3)cc2Cl)C1 (stereo partly drawn) [Compound A043]
≥ 80%: mortality at 200 ppm (Myzus persicae) | percent effect (mortality or growth inhibition) at 200 ppm (Diabrotica Balteata) | percent control (mortality, anti-feedant effect or growth inhibition) at 200 ppm (Spodoptera littoralis) | mortality at 200 ppm (Tetranychus urticae) | mortality at 200 ppm (Thrips tabaci) | percent effect (mortality or growth inhibition) at 200 ppm (Plutella xylostella)

COC1=NOC(NC(=O)c2ccc(C3=NO[C@@](c4cc(Cl)cc(Cl)c4)(C(F)(F)F)C3)cc2C)C1 (stereo partly drawn) [Compound A054]
≥ 80%: mortality at 200 ppm (Myzus persicae) | percent effect (mortality or growth inhibition) at 200 ppm (Diabrotica Balteata) | percent control (mortality, anti-feedant effect or growth inhibition) at 200 ppm (Spodoptera littoralis) | mortality at 200 ppm (Tetranychus urticae) | mortality at 200 ppm (Thrips tabaci) | percent effect (mortality or growth inhibition) at 200 ppm (Plutella xylostella)
